# According to patent US11891365B2, “3-alkyl-4-amido-bicyclic [4,5,0] hydroxamic acids as HDAC inhibitors” (Valo Health, Inc., priority 2015, dated 2024):
# Target: T1, Full length human recombinant HDAC6 protein (Homo sapiens, UniProt Q9UBN7)
# T1 sequence (Q9UBN7 1-1215): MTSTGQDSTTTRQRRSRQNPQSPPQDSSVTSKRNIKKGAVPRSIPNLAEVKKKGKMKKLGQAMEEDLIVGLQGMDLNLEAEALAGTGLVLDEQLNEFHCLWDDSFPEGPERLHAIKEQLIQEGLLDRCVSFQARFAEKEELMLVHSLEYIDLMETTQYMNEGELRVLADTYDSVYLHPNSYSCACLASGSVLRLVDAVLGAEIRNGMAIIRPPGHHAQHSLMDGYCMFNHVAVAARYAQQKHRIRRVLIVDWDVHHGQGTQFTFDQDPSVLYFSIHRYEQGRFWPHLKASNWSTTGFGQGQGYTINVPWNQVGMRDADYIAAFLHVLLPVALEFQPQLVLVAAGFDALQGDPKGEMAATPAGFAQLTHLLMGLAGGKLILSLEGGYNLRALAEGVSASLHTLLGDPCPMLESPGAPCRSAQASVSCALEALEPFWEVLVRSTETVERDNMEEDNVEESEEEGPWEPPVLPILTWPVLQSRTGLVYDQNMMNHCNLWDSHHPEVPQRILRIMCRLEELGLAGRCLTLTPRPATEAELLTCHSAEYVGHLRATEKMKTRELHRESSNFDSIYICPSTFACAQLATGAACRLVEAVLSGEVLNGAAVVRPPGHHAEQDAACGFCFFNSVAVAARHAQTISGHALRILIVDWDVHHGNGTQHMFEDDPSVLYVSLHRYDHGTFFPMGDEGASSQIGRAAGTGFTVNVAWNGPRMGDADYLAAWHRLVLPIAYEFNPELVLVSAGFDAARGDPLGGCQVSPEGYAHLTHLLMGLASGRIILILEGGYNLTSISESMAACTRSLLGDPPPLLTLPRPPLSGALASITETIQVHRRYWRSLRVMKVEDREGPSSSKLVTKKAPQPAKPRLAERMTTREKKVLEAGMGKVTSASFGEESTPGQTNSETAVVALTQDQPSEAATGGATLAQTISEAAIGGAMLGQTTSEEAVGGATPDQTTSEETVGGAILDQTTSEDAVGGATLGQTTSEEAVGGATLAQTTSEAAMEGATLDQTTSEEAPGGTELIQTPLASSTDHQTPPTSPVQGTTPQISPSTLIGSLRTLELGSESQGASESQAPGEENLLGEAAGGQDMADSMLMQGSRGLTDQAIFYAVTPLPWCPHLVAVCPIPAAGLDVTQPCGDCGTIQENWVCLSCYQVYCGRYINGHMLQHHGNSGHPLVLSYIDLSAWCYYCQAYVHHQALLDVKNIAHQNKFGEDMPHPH
# Assay: In vitro histone deacetylase assay: enzymatic HDAC6 electrophoretic mobility shift assay
# Type: biochemical
# Settings: 1 nM enzyme, 2 μM peptide substrate RHKK(Ac)-NH2, 25° C., 12 concentrations; read-out: Inhibitory Concentration (IC50) Values against HDAC6, Activity Range
row,SMILES,IC50 [nM]
1,"O=C(NO)c1ccc2c(c1)OCCN(C(=O)CCc1ccccc1)C2 [N-hydroxy-4-(3-phenylpropanoyl)-2,3,4,5-tetrahydrobenzo[f][1,4]oxazepine-8-carboxamide]",≤ 100
2,"O=C(NO)c1ccc2c(c1)OCCN(C(=O)C1OC3(CCNCC3)c3ccccc31)C2 (centres unmarked) [N-hydroxy-4-(3H-spiro[isobenzofuran-1,4′-piperidine]-3-carbonyl)-2,3,4,5-tetrahydrobenzo[f][1,4]oxazepine-8-carboxamide]",100 to 500
3,"O=C(NO)c1ccc2c(c1)OCCN(C(=O)c1ccc(C(F)(F)F)cc1)C2 [N-hydroxy-4-(4-(trifluoromethyl)benzoyl)-2,3,4,5-tetrahydrobenzo[f][1,4]oxazepine-8-carboxamide]",100 to 500
4,"COCCC(C(=O)N1CCOc2cc(C(=O)NO)ccc2C1)c1ccccn1 (centres unmarked) [N-hydroxy-4-(4-methoxy-2-(pyridin-2-yl)butanoyl)-2,3,4,5-tetrahydrobenzo[f][1,4]oxazepine-8-carboxamide]",100 to 500
5,"COc1ccc(C(=O)N2CCOc3ccc(C(=O)NO)cc3C2)cc1 [N-hydroxy-4-(4-methoxybenzoyl)-2,3,4,5-tetrahydrobenzo[f][1,4]oxazepine-7-carboxamide]",> 500
6,"COc1ccc(C(=O)N2CC(=O)Nc3ccc(C(=O)NO)cc3C2)cc1 [N-hydroxy-4-(4-methoxybenzoyl)-2-oxo-2,3,4,5-tetrahydro-1H-benzo[e][1,4]diazepine-7-carboxamide]",> 500
7,"O=C(NO)c1ccc2c(c1)OCCN(C(=O)c1ccc(N3CCOCC3)cc1)C2 [N-hydroxy-4-(4-morpholinobenzoyl)-2,3,4,5-tetrahydrobenzo[f][1,4]oxazepine-8-carboxamide]",100 to 500
8,"O=C(NO)c1ccc2c(c1)OCCN(C(=O)c1ccc(Oc3ccccc3)cc1)C2 [N-hydroxy-4-(4-phenoxybenzoyl)-2,3,4,5-tetrahydrobenzo[f][1,4]oxazepine-8-carboxamide]",≤ 100
9,"O=C(NO)c1ccc2c(c1)OCCN(C(=O)C1(c3ccccc3)CCOCC1)C2 [N-hydroxy-4-(4-phenyltetrahydro-2H-pyran-4-carbonyl)-2,3,4,5-tetrahydrobenzo[f][1,4]oxazepine-8-carboxamide]",100 to 500
10,"O=C(NO)c1ccc2c(c1)OCCN(C(=O)C1CC13CCCNC3)C2 (centres unmarked) [N-hydroxy-4-(5-azaspiro[2.5]octane-1-carbonyl)-2,3,4,5-tetrahydrobenzo[f][1,4]oxazepine-8-carboxamide]",> 500
11,"O=C(NO)c1ccc2c(c1)OCCN(C(=O)C1CC13CCNCC3)C2 (centres unmarked) [N-hydroxy-4-(6-azaspiro[2.5]octane-1-carbonyl)-2,3,4,5-tetrahydrobenzo[f][1,4]oxazepine-8-carboxamide]",100 to 500
12,"O=C(NO)c1ccc2c(c1)OCCN(C(=O)C1CCC3(CCNCC3)C1)C2 (centres unmarked) [N-hydroxy-4-(8-azaspiro[4.5]decane-2-carbonyl)-2,3,4,5-tetrahydrobenzo[f][1,4]oxazepine-8-carboxamide]",≤ 100
13,"O=C(NO)c1ccc2c(c1)OCC(C1CCOCC1)N(C(=O)C1CCOCC1)C2 (centres unmarked) [N-hydroxy-4-(tetrahydro-2H-pyran-4-carbonyl)-3-(tetrahydro-2H-pyran-4-yl)-2,3,4,5-tetrahydrobenzo[f][1,4]oxazepine-8-carboxamide]",> 500
14,"O=C(NO)c1ccc2c(c1)OCC1(CC1)N(C(=O)C1CCOCC1)C2 [N-hydroxy-4-(tetrahydro-2H-pyran-4-carbonyl)-4,5-dihydro-2H-spiro[benzo[f][1,4]oxazepine-3,1′-cyclopropane]-8-carboxamide]",≤ 100
15,"O=C(NO)c1cnc2c(n1)OCCN(C(=O)C1CCOCC1)C2 [N-hydroxy-8-(tetrahydro-2H-pyran-4-carbonyl)-6,7,8,9-tetrahydropyrazino[2,3-f][1,4]oxazepine-3-carboxamide]",100 to 500
16,"CC(C)(C)OC(=O)N1CCC2(CC1)CC2C(=O)N1CCOc2cc(C(=O)NO)ccc2C1 (centres unmarked) [tert-butyl 1-(8-(hydroxycarbamoyl)-2,3,4,5-tetrahydrobenzo[f][1,4]oxazepine-4-carbonyl)-6-azaspiro[2.5]octane-6-carboxylate]",100 to 500
17,"CC(C)(C)OC(=O)N1CCC2(CC1)c1ccccc1OC2C(=O)N1CCOc2cc(C(=O)NO)ccc2C1 (centres unmarked) [tert-butyl 2-(8-(hydroxycarbamoyl)-2,3,4,5-tetrahydrobenzo[f][1,4]oxazepine-4-carbonyl)-2H-spiro[benzofuran-3,4′-piperidine]-1′-carboxylate]",100 to 500
18,"CC(C)(C)OC(=O)N1CCC2(CCC(C(=O)N3CCOc4cc(C(=O)NO)ccc4C3)C2)CC1 (centres unmarked) [tert-butyl 2-(8-(hydroxycarbamoyl)-2,3,4,5-tetrahydrobenzo[f][1,4]oxazepine-4-carbonyl)-8-azaspiro[4.5]decane-8-carboxylate]",100 to 500
19,"CC(C)(C)OC(=O)N1CCC2(CC1)CC(C(=O)N1CCOc3cc(C(=O)NO)ccc3C1)c1ccccc12 (centres unmarked) [tert-butyl 3-(8-(hydroxycarbamoyl)-2,3,4,5-tetrahydrobenzo[f][1,4]oxazepine-4-carbonyl)-2,3-dihydrospiro[indene-1,4′-piperidine]-1′-carboxylate]",100 to 500
20,"CC(C)(C)OC(=O)N1CCC2(CC1)OC(C(=O)N1CCOc3cc(C(=O)NO)ccc3C1)c1ccccc12 (centres unmarked) [tert-butyl 3-(8-(hydroxycarbamoyl)-2,3,4,5-tetrahydrobenzo[f][1,4]oxazepine-4-carbonyl)-3H-spiro[isobenzofuran-1,4′-piperidine]-1′-carboxylate]",100 to 500
21,"CC(C)(C)OC(=O)N1CCC2(CCCC2C(=O)N2CCOc3cc(C(=O)NO)ccc3C2)C1 (centres unmarked) [tert-butyl 6-(8-(hydroxycarbamoyl)-2,3,4,5-tetrahydrobenzo[f][1,4]oxazepine-4-carbonyl)-2-azaspiro[4.4]nonane-2-carboxylate]",100 to 500

# Next, values leading:
row,IC50 [nM],SMILES
1,100 to 500,"O=C(NO)c1ccc2c(c1)OCCN(C(=O)CCC(F)(F)F)C2 [N-hydroxy-4-(4,4,4-trifluorobutanoyl)-2,3,4,5-tetrahydrobenzo[f][1,4]oxazepine-8-carboxamide]"
2,≤ 100,"COc1ccc(C(=O)N2CCOc3cc(C(=O)NO)ccc3C2)cc1 [N-hydroxy-4-(4-methoxybenzoyl)-2,3,4,5-tetrahydrobenzo[f][1,4]oxazepine-8-carboxamide]"
3,≤ 100,"COC1CCC(C(=O)N2CCOc3cc(C(=O)NO)ccc3C2)CC1 (centres unmarked) [N-hydroxy-4-(4-methoxycyclohexane-1-carbonyl)-2,3,4,5-tetrahydrobenzo[f][1,4]oxazepine-8-carboxamide]"
4,≤ 100,"CC1(C(=O)N2CCOc3cc(C(=O)NO)ccc3C2)CCOCC1 [N-hydroxy-4-(4-methyltetrahydro-2H-pyran-4-carbonyl)-2,3,4,5-tetrahydrobenzo[f][1,4]oxazepine-8-carboxamide]"
5,> 500,"O=C(NO)c1ccc2c(c1)OCCN(C(=O)C1CC13CCNC3)C2 (centres unmarked) [N-hydroxy-4-(5-azaspiro[2.4]heptane-1-carbonyl)-2,3,4,5-tetrahydrobenzo[f][1,4]oxazepine-8-carboxamide]"
6,100 to 500,"CN(CC(=O)N1CCOc2cc(C(=O)NO)ccc2C1)S(C)(=O)=O [N-hydroxy-4-(N-methyl-N-(methylsulfonyl)glycyl)-2,3,4,5-tetrahydrobenzo[f][1,4]oxazepine-8-carboxamide]"
7,≤ 100,"O=C(NO)c1ccc2c(c1)OCCN(C(=O)C1COC1)C2 [N-hydroxy-4-(oxetane-3-carbonyl)-2,3,4,5-tetrahydrobenzo[f][1,4]oxazepine-8-carboxamide]"
8,≤ 100,"O=C(NO)c1ccc2c(c1)OCCN(C(=O)C1CCOCC1)C2 [N-hydroxy-4-(tetrahydro-2H-pyran-4-carbonyl)-2,3,4,5-tetrahydrobenzo[f][1,4]oxazepine-8-carboxamide]"
9,≤ 100,"O=C(NO)c1ccc2c(c1)OCCN(C(=O)C1CCOC1)C2 (centres unmarked) [N-hydroxy-4-(tetrahydrofuran-3-carbonyl)-2,3,4,5-tetrahydrobenzo[f][1,4]oxazepine-8-carboxamide]"
10,≤ 100,"CC(C)C(=O)N1CCOc2cc(C(=O)NO)ccc2C1 [N-hydroxy-4-isobutyryl-2,3,4,5-tetrahydrobenzo[f][1,4]oxazepine-8-carboxamide]"
11,≤ 100,"CC(C)(C)C(=O)N1CCOc2cc(C(=O)NO)ccc2C1 [N-hydroxy-4-pivaloyl-2,3,4,5-tetrahydrobenzo[f][1,4]oxazepine-8-carboxamide]"
